Measured values: patent publication US8404839B2, “Crystalline 4-(3-chloro-2-fluoroanilino)-7 methoxy-6-{[1-(N-methylcarbamoylmethyl)piperidin-4-yl]oxy} quinazoline difumarate Form A” (Astrazeneca AB, priority 2008, dated 2013)
Converted amounts (≈) assume the structure as drawn. Like-named read-outs stand apart in the source and are kept apart here.

Tests used:
[1] = Pharmacokinetic study in dogs; type: in vivo, Male Beagle Dogs; conditions: dog, n = 4, mean ± SE; for AUC(0-t): read-out: AUC(0-48)
[2] = Cellular permeability / BCS classification; type: in vitro ADME
ErbB2 = ErbB2 (Homo sapiens, UniProt P04626); test: p-ErbB2 ELISA in HRG-stimulated MCF-7 cells; type: cell-based; conditions: 90 minutes treatment, bracket = confidence interval ratio, read-out: p-ErbB2 Geo Mean IC50 (95% CIR)
ErbB2, sequence (P04626 23-1255): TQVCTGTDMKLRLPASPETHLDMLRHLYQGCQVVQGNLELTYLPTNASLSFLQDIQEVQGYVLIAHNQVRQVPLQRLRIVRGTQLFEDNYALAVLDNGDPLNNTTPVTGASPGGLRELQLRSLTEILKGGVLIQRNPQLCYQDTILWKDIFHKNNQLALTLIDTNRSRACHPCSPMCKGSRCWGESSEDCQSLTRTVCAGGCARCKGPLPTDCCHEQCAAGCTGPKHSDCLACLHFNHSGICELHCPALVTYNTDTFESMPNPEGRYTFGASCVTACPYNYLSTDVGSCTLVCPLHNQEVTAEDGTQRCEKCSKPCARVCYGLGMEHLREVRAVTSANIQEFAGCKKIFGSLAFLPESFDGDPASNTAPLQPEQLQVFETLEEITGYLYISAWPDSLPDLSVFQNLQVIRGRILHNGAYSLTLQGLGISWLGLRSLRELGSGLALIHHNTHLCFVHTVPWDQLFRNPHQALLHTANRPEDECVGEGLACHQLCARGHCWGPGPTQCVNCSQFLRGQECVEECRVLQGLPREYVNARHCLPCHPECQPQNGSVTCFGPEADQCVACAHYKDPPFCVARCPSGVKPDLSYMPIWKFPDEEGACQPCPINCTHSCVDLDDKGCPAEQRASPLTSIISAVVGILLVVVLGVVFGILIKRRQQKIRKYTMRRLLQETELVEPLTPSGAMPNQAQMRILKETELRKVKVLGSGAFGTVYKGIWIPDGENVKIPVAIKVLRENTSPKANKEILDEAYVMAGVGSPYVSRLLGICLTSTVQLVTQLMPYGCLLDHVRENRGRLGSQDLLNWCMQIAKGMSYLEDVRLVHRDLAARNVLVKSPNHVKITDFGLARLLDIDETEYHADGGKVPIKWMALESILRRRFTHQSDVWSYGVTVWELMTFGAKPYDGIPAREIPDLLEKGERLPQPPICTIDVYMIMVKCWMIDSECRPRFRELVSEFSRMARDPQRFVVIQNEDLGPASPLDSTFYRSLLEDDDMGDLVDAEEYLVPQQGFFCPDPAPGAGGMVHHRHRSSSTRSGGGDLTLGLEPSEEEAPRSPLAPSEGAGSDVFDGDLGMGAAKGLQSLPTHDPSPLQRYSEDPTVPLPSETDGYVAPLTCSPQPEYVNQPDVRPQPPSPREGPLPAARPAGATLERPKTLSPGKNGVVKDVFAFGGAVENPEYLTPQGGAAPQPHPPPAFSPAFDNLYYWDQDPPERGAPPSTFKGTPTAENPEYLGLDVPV

Dynamic vapour sorption = type: physicochemical; conditions: for hygroscopicity (in words): Dynamic Vapour Sorption
Protocol: (ix) dynamic vapour sorption was measured using a SMS DVS (Surface Measurement Systems Limited, UK). Samples were analysed at 25° C. using a gas flow of 200 cubic centimeters per minute. The relative humidity (RH) was increased from 0% RH in steps of 10% RH to 80% RH with the final step of 95% RH. The sample was then desorbed using the same RH step pattern as the sorption; this procedure was then repeated in a second sorption/desorption cycle. Equilibration at each humidity step is set such that the rate of change of weight with time (minute) was 0.002%.

[3] = In vitro dissolution of direct compression tablets; type: physicochemical; conditions: pH 4.5 citrate buffer, 100 mg free base equivalents
Protocol: The performance of the solid dosage forms was evaluated in vitro prior to the in-vivo dog study commencing.

MCF-7 cells [4] = test: Basal MCF-7 cell proliferation assay (MTS); type: cell-based; conditions: Homo sapiens, MCF7, 96 h, unstimulated, 4 days, read-out: Basal proliferation Geo Mean GI50
Protocol: MCF-7 cells were routinely cultured in DMEM (Phenol red free)+10% Foetal Bovine Serum+2 mM L-Glutamine. […] Basal wells were unstimulated with ligand. After incubation for 4 days, cell viability was assessed using a 3-(4,5-dimethylthiazol-2-yl)-5-(3-carboxymethoxyphenyl)-2-(4-sulfophenyl)-2H-tetrazolium (MTS) assay. Prior to IC50 determination of HRG-stimulated compound-treated cells, mean basal growth at 96 hours was subtracted from each of the readouts so that proliferation driven through HRG-signalling was assessed. Basal IC50 values are expressed as GI50 i.e. the day 0 plate cell number (baseline reading) was subtracted from the readout at 96 hours later.

[5] = Aqueous solubility (HPLC UV); type: physicochemical; conditions: for solubility at 48 h: thermodynamic from solid, 25° C.
Protocol: (xi) solubility in water was measured using HPLC UV.
The intrinsic dissolution rates of Compound (I) difumarate Form A and Compound (I) was also been measured in a range of aqueous buffers.

MCF-7 cells [6] = test: HRG-stimulated MCF-7 cell proliferation assay (MTS); type: cell-based; conditions: Homo sapiens, MCF7, 96 h, 10 ng/ml HRG, 4 days, basal growth subtracted, read-out: HRG-stimulated proliferation Geo Mean IC50
[7] = Intrinsic dissolution rate in aqueous buffers; type: physicochemical; conditions: for Intrinsic Dissolution Rate: 37° C.
Protocol: (x) intrinsic dissolution rate was measured in a dissolution bath coupled to a fibre optic uv detector.

ErbB3 = test: p-ErbB3 ELISA in HRG-stimulated MCF-7 cells; type: cell-based, Human; conditions: 90 minutes treatment, bracket = confidence interval ratio, read-out: p-ErbB3 Geo Mean IC50 (95% CIR)
Protocol: KB cells and MCF-7 cells were obtained from the American Type Culture Collection (ATCC) and routinely cultured in RPMI 1640 (Phenol red free)+10% Foetal Bovine Serum+2 mM L-Glutamine. KB cells were seeded at 5000 cells/well and MCF-7 cells at 4000 cells/well in 96 well plates in RPMI 1640 media containing 10% FBS. Cells were incubated for 72 hours before replacing the media with serum-free RPMI 1640 media for 24 hours. […] Immediately before cell lysis, MCF-7 and KB cells were incubated for 5 minutes with ligand (heregulin (“HRG”) for the MCF-7 cells and epidermal growth factor (“EGF”) for the KB cells) at concentrations required to increase receptor phosphorylation to 90% of max (ED90) to allow inter-assay comparison. The p-EGFR status of KB cells was measured using the Human phospho-EGFR Duoset ELISA kit (R&D systems total EGFR #DYC1854, pEGFR #DYC1095). The p-ErbB2 and p-ErbB3 content of MCF-7 cells were measured using the Human phospho-ErbB2 Duoset ELISA kit (R&D systems, DYC1768) and Human phospho-ErbB3 Duoset ELISA kit (R&D systems, DYC1769) respectively. The kits measured whole cell tyrosine phosphorylation of EGFR, ErbB2 or ErbB3. Assays were performed according to the manufacturers instructions, with 50 μl lysate added per well.

[8] = oral direct compressed tablet, 100 mg free form equivalent, versus IV 20 mg
[9] = male, beagle, plasma, oral direct compressed tablet, 100 mg free form equivalent
[10] = oral direct compressed tablet, 100 mg free form equivalent

In the case of `CNC(=O)CN1CCC(Oc2cc3c(Nc4cccc(Cl)c4F)ncnc3cc2OC)CC1` [Compound (I), 4-(3-chloro-2-fluoroanilino)-7-methoxy-6-{[1-(N-methylcarbamoylmethyl)piperidin-4-yl]oxy}quinazoline], the “Bioavailability(0-48 h)” value [1, 8] is reported as 63.5 ± 7.0%, the bioavailability ([1]; male, beagle, plasma, oral, 100 mg, oral direct compressed tablet, 100 mg free form equivalent, versus IV 20 mg, read-out: Bioavailability(0-48 h)) is reported as 64% and the Cmax ([1]; male, beagle, plasma, IV 20 mg) is reported as 9 ± 1.1 µM. For the same molecule, the AUC(0-t) ([1]; male, beagle, plasma, IV 20 mg) was 33.4 ± 7.7 µM·h, the clearance ([1]; male, beagle, plasma, IV 20 mg, read-out: Cl (Clearance)) was 1.9 ± 0.5 mL/min/kg and the half-life ([1]; male, beagle, plasma, IV 20 mg, read-out: Half-life (converted)) was 5.3 ± 0.2 h. For the same molecule, the Tmax ([1]; male, beagle, plasma, IV 20 mg, read-out: Tmax) was 0.2 h, the Vd ([1]; male, beagle, plasma, IV 20 mg, read-out: Vss (Volume of distribution at steady state)) was 0.6 ± 0.1 L/kg and the Cmax [1, 9] was 14 ± 1.7 µM. It also gave an AUC(0-t) [1, 9] of 104 ± 25.3 µM·h, a half-life ([1]; male, beagle, plasma, oral direct compressed tablet, 100 mg free form equivalent, read-out: Half-life (converted)) of 8.2 ± 0.6 h and a Tmax ([1]; male, beagle, plasma, oral direct compressed tablet, 100 mg free form equivalent, read-out: Tmax) of 1.6 ± 0.8 h. For the same molecule, the “cellular permeability (in words)” value [2] was “high”, the BCS classification ([2]; suggested by low solubility and high permeability) was “Class II” and the IC50 (ErbB2) was 3 nM. For the same molecule, the “hygroscopicity (in words)” value (Dynamic vapour sorption) was “moderately hygroscopic”, the “moisture uptake (Dynamic Vapour Sorption)” value (Dynamic vapour sorption; at 80% relative humidity, 25° C.) was “approximately 1.9 % w/w” and the “% Dissolution at 45 minutes” value [3] was 93.6%. It also gave a GI50 (MCF-7 cells [4]) of 1090 nM, a solubility at 48 h ([5]; aqueous buffer, pH 2.7, 48 hours, read-out: solubility in aqueous buffer) of 27200 µg/mL (≈ 57400 µM) and a solubility at 48 h ([5]; aqueous buffer, pH 7.9, 48 hours, read-out: solubility in aqueous buffer) of 1 µg/mL (≈ 2.11 µM). For the same molecule, the solubility at 48 h ([5]; water, 48 hours, pH 7.0, read-out: solubility in water) was 1 µg/mL (≈ 2.11 µM), the IC50 (MCF-7 cells [6]) was 61 nM and the “Intrinsic Dissolution Rate” value ([7]; SGF (Simulated Gastric Fluid)) was 19.2 mgmin^−1cm^−2. The “Intrinsic Dissolution Rate” value ([7]; pH 6.5 phosphate buffer) was 0.01 mgmin^−1cm^−2, the “intrinsic dissolution rate (in words)” value ([7]; particularly at pH below 6.0) was “relatively low” and the IC50 (ErbB3) was 4 nM.
With `CNC(=O)CN1CCC(Oc2cc3c(Nc4cccc(Cl)c4F)ncnc3cc2OC)CC1.O=C(O)/C=C/C(=O)O.O=C(O)/C=C/C(=O)O` [Compound (I) difumarate Form A, 2-[4-({4-[(3-Chloro-2-fluorophenyl)amino]-7-methoxyquinazolin-6-yl}oxy)piperidin-1-yl]-N-methylacetamide di-[(2E)-but-2-enedioate] Form A] the “AUC(0-48)” value [1, 10] was 190.3 ± 46.9 µM·h, the Cmax [1, 10] was 32.6 ± 3.6 µM and the Tmax [1, 10] was 1.1 ± 0.3 h. For the same molecule, the half-life [1, 10] was 16.9 ± 4.0 h, the “Bioavailability(0-48 h)” value [1, 8] was 113% and the “Bioavailability(0-48 h)” value ([1]; oral direct compressed tablet, 100 mg free form equivalent, versus IV 20 mg, listed as Difumarate Form A) was 112.5 ± 8.1%. For the same molecule, the “hygroscopicity (in words)” value (Dynamic vapour sorption) was “non-hygroscopic”, the “moisture absorbed (Dynamic Vapour Sorption)” value (Dynamic vapour sorption; up to 95% relative humidity, 25° C.) was < 0.5% and the “% Dissolution at 45 minutes” value [3] was 100.3%. The solubility in water ([5]; pH 3.5) was 22500 µg/mL, the “Intrinsic Dissolution Rate” value ([7]; SGF (Simulated Gastric Fluid)) was 15.9 mgmin^−1cm^−2 and the “Intrinsic Dissolution Rate” value ([7]; pH 6.5 phosphate buffer) was 2.51 mgmin^−1cm^−2.
